Earlier results in patent publication US12096767B2, “Residual disinfectant composition” (Kimberly-Clark Worldwide, Inc., priority 2015, dated 2024).

Details: determined at a temperature of 25° C.

pka1: 3.18
Structure (SMILES): O=CC(=O)O [glyoxylic acid]
